Data as given in PubChem BioAssay (NCI).
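Exposure lasted 48 hours, with cells grown in 96-well plates and compounds tested at five concentrations. At the TGI there is no net growth.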

Tests used:
Test in all cases: DTP human tumour cell line panel, 48 h
[1] = system: ACHN renal
[2] = system: MDA-N
[3] = system: SK-OV-3 ovarian
[4] = system: A498 renal
[5] = system: BT-549 breast
[6] = system: T-47D breast
[7] = system: 786-0 renal
[8] = system: SW-620 colon
[9] = system: RPMI-8226 leukemia
[10] = system: MDA-MB-435
[11] = system: MOLT-4 leukemia
[12] = system: A549 NSCLC
[13] = system: K-562 leukemia
[14] = system: EKVX NSCLC
[15] = system: HT29 colon
[16] = system: MDA-MB-231 breast
[17] = system: OVCAR-4 ovarian
[18] = system: UACC-257 melanoma
[19] = system: HL-60(TB) leukemia
[20] = system: HOP-92 NSCLC
[21] = system: UACC-62 melanoma
[22] = system: TK-10 renal
[23] = system: HCC-2998 colon
[24] = system: M14 melanoma
[25] = system: SF-539 CNS
[26] = system: KM12 colon
[27] = system: NCI-H460 lung
[28] = system: MALME-3M melanoma
[29] = system: COLO 205 colon
[30] = system: LOX IMVI melanoma
[31] = system: MCF7 breast
[32] = system: HOP-62 NSCLC
[33] = system: UO-31 renal
[34] = system: HS 578T breast
[35] = system: SF-268 CNS
[36] = system: OVCAR-8 ovarian
[37] = system: IGROV1 ovarian
[38] = system: NCI-H226 lung
[39] = system: SK-MEL-2 melanoma
[40] = system: OVCAR-5 ovarian
[41] = system: SF-295 CNS
[42] = system: OVCAR-3 ovarian
[43] = system: CAKI-1 renal
[44] = system: SN12C renal
[45] = system: SK-MEL-28 melanoma
[46] = system: DU-145 prostate
[47] = system: CCRF-CEM leukemia
[48] = system: SNB-19 CNS
[49] = system: HCT-15 colon
[50] = system: RXF 393 renal
[51] = system: NCI-H23 lung
[52] = system: SNB-75 CNS
[53] = system: U251 CNS
[54] = system: HCT-116 colon
[55] = system: SK-MEL-5 melanoma
[56] = system: NCI/ADR-RES ovarian
[57] = system: PC-3 prostate
[58] = system: NCI-H522 lung

For `O=C(C(=NC12CC3CC(CC(C3)C1)C2)NNc1ccc([N+](=O)[O-])cc1[N+](=O)[O-])C(Br)C(=O)c1ccccc1` (configuration not stated), the TGI [1] was > 10 µM, the TGI [2] was > 10 µM and the TGI [3] was 9.04 µM. The TGI [4] was 6.96 µM, the TGI [5] was > 10 µM and the TGI [6] was 9.29 µM. The TGI [7] was > 10 µM, the TGI [8] was > 10 µM and the TGI [9] was 6.38 µM. For the same molecule, the TGI [10] was > 10 µM, the TGI [11] was 9.72 µM and the TGI [12] was > 10 µM. For the same molecule, the TGI [13] was > 10 µM, the TGI [14] was 9.64 µM and the TGI [15] was > 10 µM. For the same molecule, the TGI [16] was 6.13 µM, the TGI [17] was > 10 µM and the TGI [18] was 6.28 µM. For the same molecule, the TGI [19] was 5.57 µM, the TGI [20] was 6.66 µM and the TGI [21] was > 10 µM. For the same molecule, the TGI [22] was > 10 µM, the TGI [23] was > 10 µM and the TGI [24] was 6.84 µM. For the same molecule, the TGI [25] was 8.73 µM, the TGI [26] was > 10 µM and the TGI [27] was > 10 µM. For the same molecule, the TGI [28] was > 10 µM, the TGI [29] was 4.23 µM and the TGI [30] was 6.25 µM. The TGI [31] was > 10 µM, the TGI [32] was 6.84 µM and the TGI [33] was > 10 µM. For the same molecule, the TGI [34] was > 10 µM, the TGI [35] was > 10 µM and the TGI [36] was > 10 µM. The TGI [37] was > 10 µM, the TGI [38] was 8.31 µM and the TGI [39] was > 10 µM. For the same molecule, the TGI [40] was > 10 µM, the TGI [41] was > 10 µM and the TGI [42] was 8.83 µM. For the same molecule, the TGI [43] was > 10 µM, the TGI [44] was > 10 µM and the TGI [45] was > 10 µM. For the same molecule, the TGI [46] was > 10 µM, the TGI [47] was 7.67 µM and the TGI [48] was > 10 µM. The TGI [49] was > 10 µM, the TGI [50] was 8.31 µM and the TGI [51] was 8.4 µM. The TGI [52] was 7.38 µM, the TGI [53] was > 10 µM and the TGI [54] was 8.78 µM. For the same molecule, the TGI [55] was 2.5 µM, the TGI [56] was > 10 µM and the TGI [57] was 9.87 µM.

For `C[C@]12CC(c3ccccc3O1)C(C(N)=O)C(=O)N2` (some centres not stated), the TGI [1] was > 100 µM, the TGI [2] was > 100 µM and the TGI [3] was > 100 µM. For the same molecule, the TGI [4] was > 100 µM, the TGI [5] was > 100 µM and the TGI [6] was > 100 µM. The TGI [7] was > 100 µM, the TGI [8] was > 100 µM and the TGI [9] was > 100 µM. The TGI [10] was > 100 µM, the TGI [58] was > 100 µM and the TGI [11] was > 100 µM. The TGI [12] was > 100 µM, the TGI [13] was > 100 µM and the TGI [14] was > 100 µM. The TGI [15] was > 100 µM, the TGI [16] was > 100 µM and the TGI [17] was > 100 µM. The TGI [18] was > 100 µM, the TGI [19] was > 100 µM and the TGI [20] was > 100 µM. For the same molecule, the TGI [21] was > 100 µM, the TGI [23] was > 100 µM and the TGI [24] was > 100 µM. The TGI [26] was > 100 µM, the TGI [27] was > 100 µM and the TGI [28] was > 100 µM. The TGI [29] was > 100 µM, the TGI [30] was > 100 µM and the TGI [31] was > 100 µM. The TGI [32] was > 100 µM, the TGI [34] was > 100 µM and the TGI [35] was > 100 µM. The TGI [36] was > 100 µM, the TGI [37] was > 100 µM and the TGI [38] was > 100 µM. For the same molecule, the TGI [39] was > 100 µM, the TGI [40] was > 100 µM and the TGI [42] was > 100 µM. For the same molecule, the TGI [43] was > 100 µM, the TGI [44] was > 100 µM and the TGI [45] was > 100 µM. The TGI [46] was > 100 µM, the TGI [47] was > 100 µM and the TGI [48] was > 100 µM. The TGI [49] was > 100 µM, the TGI [50] was > 100 µM and the TGI [51] was > 100 µM. The TGI [52] was > 100 µM, the TGI [53] was > 100 µM and the TGI [54] was > 100 µM. The TGI [55] was > 100 µM, the TGI [56] was > 100 µM and the TGI [57] was > 100 µM.

`CC1(C)OCC(C2CCC3(C)C4=CCC5C(C)(C)C(O)CCC5(C)C4CCC23C)CC(O)C1O` (configuration not stated) gave a TGI [1] of 45.9 µM, a TGI [2] of 34.5 µM and a TGI [3] of 35.5 µM. It also gave a TGI [4] of 42.6 µM, a TGI [5] of 32.9 µM and a TGI [6] of 23.8 µM. For the same molecule, the TGI [7] was 28.7 µM, the TGI [8] was 37.4 µM and the TGI [9] was 48.6 µM. For the same molecule, the TGI [10] was 31.8 µM, the TGI [58] was 36.3 µM and the TGI [11] was 35.9 µM. For the same molecule, the TGI [12] was 36 µM, the TGI [13] was 21.6 µM and the TGI [14] was 28.5 µM. The TGI [15] was 33.4 µM, the TGI [16] was 35.7 µM and the TGI [17] was 32.3 µM. It also gave a TGI [18] of 30.6 µM, a TGI [19] of 56.7 µM and a TGI [20] of 36.4 µM. For the same molecule, the TGI [21] was 29.1 µM, the TGI [22] was 28.7 µM and the TGI [23] was 32.3 µM. The TGI [24] was 35.4 µM, the TGI [25] was 39.9 µM and the TGI [26] was 28.1 µM. It also gave a TGI [27] of 41.4 µM, a TGI [28] of 30.6 µM and a TGI [29] of 43.5 µM. The TGI [30] was 31.7 µM, the TGI [31] was 47.3 µM and the TGI [33] was 33.2 µM. For the same molecule, the TGI [34] was 44.7 µM, the TGI [35] was 37.6 µM and the TGI [36] was 33.3 µM. For the same molecule, the TGI [37] was 33.1 µM, the TGI [38] was 32.9 µM and the TGI [39] was 32.5 µM. It also gave a TGI [40] of 36.2 µM, a TGI [41] of 35.6 µM and a TGI [42] of 30 µM. The TGI [43] was 27.5 µM, the TGI [44] was 36.2 µM and the TGI [45] was 32.6 µM. It also gave a TGI [46] of 29 µM, a TGI [47] of 68.7 µM and a TGI [48] of 29.5 µM. It also gave a TGI [49] of 32.8 µM, a TGI [51] of 38.2 µM and a TGI [52] of 29 µM. For the same molecule, the TGI [53] was 31.3 µM, the TGI [54] was 27.3 µM and the TGI [55] was 28.7 µM. The TGI [56] was 39.5 µM and the TGI [57] was 26.6 µM.
